# Experimental data taken from the supplement of paper PMC10307832.
# Legend:
# Assay in all cases: relative viability (nuclei count vs DMSO), 5 days (fraction); higher = more cells survive
# Masitinib + Dasatinib = compound: Cc1ccc(NC(=O)c2ccc(CN3CCN(C)CC3)cc2)cc1Nc1nc(-c2cccnc2)cs1 [Masitinib] + Cc1nc(Nc2ncc(C(=O)Nc3c(C)cccc3Cl)s2)cc(N2CCN(CCO)CC2)n1 [Dasatinib] (partner 0.075 µM)
# Procedure, shortened: (§1)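 Five library-drug doses in √10 steps were combined with a fixed anchor-drug dose, or a single drug was given alone, by pin tool to lung cancer cell lines in 1536-well plates the day after seeding. Nuclei were stained and counted after 5 days. Relative viability is the nuclei count in treated wells over that in vehicle wells, taken as the median of duplicate plates.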
# [1] = compound: CC1=CC(=CC=C1)NC2=NC(=CS2)C3=CC=NC=C3 + CC(C)C[C@H](NC(=O)[C@H](Cc1ccccc1)NC(=O)c1cnccn1)B(O)O [Bortezomib] (partner 0.002 µM)
# Procedure, shortened: as §1
# Masitinib + Luminespib = compound: Cc1ccc(NC(=O)c2ccc(CN3CCN(C)CC3)cc2)cc1Nc1nc(-c2cccnc2)cs1 [Masitinib] + CCNC(=O)c1noc(-c2cc(C(C)C)c(O)cc2O)c1-c1ccc(CN2CCOCC2)cc1 [Luminespib] (partner 0.01 µM)
# Procedure, shortened: as §1
# [2] = compound: CC1=CC(=CC=C1)NC2=NC(=CS2)C3=CC=NC=C3 + Nc1ncn([C@H]2C[C@H](O)[C@@H](CO)O2)c(=O)n1 [Decitabine] (partner 2 µM)
# Procedure, shortened: as §1
Cell Line,relative viability (Masitinib + Dasatinib; first compound 0.01 µM),relative viability (Masitinib + Dasatinib; first compound 0.03162 µM),relative viability (Masitinib + Dasatinib; first compound 0.1 µM),relative viability (Masitinib + Dasatinib; first compound 0.3162 µM),relative viability (Masitinib + Dasatinib; first compound 1 µM),relative viability ([1]; first compound 0.08 µM),relative viability ([1]; first compound 0.253 µM),relative viability ([1]; first compound 0.8 µM),relative viability ([1]; first compound 2.53 µM),relative viability ([1]; first compound 8 µM),relative viability (Masitinib + Luminespib; first compound 0.01 µM),relative viability (Masitinib + Luminespib; first compound 0.03162 µM),relative viability (Masitinib + Luminespib; first compound 0.1 µM),relative viability (Masitinib + Luminespib; first compound 0.3162 µM),relative viability (Masitinib + Luminespib; first compound 1 µM),relative viability ([2]; first compound 0.08 µM),relative viability ([2]; first compound 0.253 µM),relative viability ([2]; first compound 0.8 µM),relative viability ([2]; first compound 2.53 µM),relative viability ([2]; first compound 8 µM)
NCI-H1563,0.399,0.481,0.49,0.481,0.415,0.794,0.842,0.808,0.836,0.59,0.509,0.537,0.524,0.532,0.505,,,,,
NCI-H1623,0.488,0.446,0.551,0.453,0.43,,,,,,0.493,0.451,0.814,0.427,0.506,,,,,
NCI-H1648,,,,,,,,,,,,,,,,0.345,0.42,0.496,0.356,0.376
NCI-H1703,,,,,,0.241,0.317,0.334,0.336,0.331,,,,,,,,,,
NCI-H1793,0.415,0.398,0.396,0.356,0.462,,,,,,0.165,0.166,0.182,0.162,0.567,0.513,0.481,0.489,0.472,0.238
NCI-H1944,,0.204,,0.215,0.213,,,,,,,0.829,,0.576,0.697,0.367,0.426,0.399,0.361,0.389
NCI-H2170,0.5,0.473,0.547,0.56,0.519,,,,,,0.645,0.689,1.02,0.631,1.02,0.426,0.399,0.437,0.43,0.361
NCI-H2228,0.544,0.461,0.729,0.523,0.425,0.892,0.761,0.771,0.925,0.714,0.172,0.189,0.16,0.148,0.15,,,,,
NCI-H2342,0.326,0.334,0.3,0.301,0.34,,,,,,0.775,0.79,0.707,0.727,0.791,0.691,0.773,0.657,0.77,0.761
SK-MES-1,0.319,0.359,0.392,0.286,0.335,,,,,,0.544,0.776,0.992,0.707,0.686,0.37,0.361,0.367,0.373,0.378
SW 900,0.613,0.473,0.706,0.499,0.477,,,,,,0.165,0.156,0.163,0.158,0.185,0.443,0.381,0.353,0.389,0.441
